We go through 9 compounds from patent US11672834B2, “Probiotic and prebiotic compositions, and methods of use thereof for modulation of the microbiome” (Evelo Biosciences, Inc., priority 2014, dated 2023).

Data set [1] can be described thus: Normal human volunteer study of D-xylose: pharmacokinetics (serum and urine D-xylose). The class given is in vivo. The conditions noted are these: Day 15; 15 mg TID cohort; variability high. Here is the method:
Blood and urine were collected at pre-specified pre- and post-ingestion time points to measure D-xylose levels and to characterize the systemic absorption profiles of D-xylose. Serum D-xylose concentrations were summarized by cohort using nominal sample times according to actual amount received using summary statistics (n, coefficient of variation [CV], mean, standard deviation [SD], median, minimum, and maximum). Evidence for the occurrence of steady-state was assessed graphically by comparing the time course of either trough or 2-hour post-ingestion serum concentrations of D-xylose as different levels of D-xylose. Accumulation was assessed by comparing the 2-hour post-first-ingestion serum levels with those observed at Week 2 (Day 15) and Week 4 (Day 28). […] Urine PK parameters for D-xylose levels included Ae(0-t) (cumulative amount of sweetener recovered in urine) and percent sweetener amount excreted over a 5-hour period.

Data set [2] deals with healthy, adult volunteers. Briefly: Normal human volunteer study of D-xylose: immunology (CRP, cytokines, T-cell markers) and gut microbiome. The class given is in vivo. The conditions noted are these: for effect on gut microbiome (alpha diversity, community composition): stool 16S, normal individuals. The text has this: Blood was collected at pre-specified pre- and post-ingestion time points to evaluate C-reactive protein (CRP), serum cytokines (tumor necrosis factor alpha [TNF-α], interleukin [IL]-2, IL-6, interferon gamma [IFN-γ], and IL-10), and T-cell markers CD3, CD4, CD8, CD25, and FOXP3. Plasma was also stored and may be tested for biomarkers and/or metabolic markers for up to 7 years.
A total of 7 stool samples were expected to be collected for each subject. Evaluation of changes in the gut microbiome were evaluated in stool samples through taxonomic classification, relative and statistical differential abundance analyses by cohort and time point, an alpha diversity analysis calculated using the Shannon diversity index by cohort and time point, a beta diversity analysis using Bray-Curtis dissimilarity and Unifrac distance by subject and time point, and a principal coordinates analysis using the beta diversity data.
Summary statistics (n, mean, standard deviation, median, minimum, and maximum) were presented for serum concentrations of CRP, flow cytometry T-cell markers (CD3, CD4, CD8, CD25, and FOXP3), and cytokines (TNF-α, IL-2, IL-6, IFN-γ, and IL-10) as per their nominal time points.
A total of 344 stool samples were collected in OMNIgene•GUT collection kits and shipped to the GenoFIND laboratory for DNA extraction and V3-V4 16S amplicon sequencing. […] Numerous taxa were identified as differentially abundant, but this finding may be attributable to the relatively small sample sizes of each cohort. […] The impact of xylose on the microbiome under disease conditions remains to be determined.

Data set [3] concerns anaerobic commensal bacteria. Briefly: Carbon source utilization by commensal bacteria (Biolog PM01/PM02A plates, OD 750 nm). The class given is cell-based.
Data set [4] concerns healthy, adult volunteers. Particulars: human, in vivo, 28 days. Here is the method: D-xylose is a carbon source generally preferred by anaerobic bacteria. […] A parallel, double-blind, 5 cohort escalation food safety study was conducted to examine D-xylose in normal human volunteers. The study was a double-blind, single-center, parallel group study designed to evaluate the tolerability and potential microbiome changes induced by ingestion of D-xylose at 5 different amounts in healthy, adult volunteers enrolled at 1 study center in the United States (US).
Subjects were screened for eligibility within 21 days prior to the first planned ingestion of study sweetener on Day 1 (Baseline). […]
Subjects returned to the study center weekly on Days 8, 15, 22, and 28 for ingestion, tolerability, and compliance evaluations. Safety was evaluated on a continual basis through adverse events (AE) monitoring, clinical laboratory measurements, vital sign monitoring, physical examinations, electrocardiograms (ECGs), telephone follow-up, and electronic subject ingestion diaries. Stool was collected pre-ingestion and at pre-specified time points, and post-ingestion samples were evaluated for changes in the gut microbiome compared with Baseline for all subjects. […]
Safety was evaluated on a continual basis through AE monitoring, clinical laboratory measurements, vital sign monitoring, physical examinations, ECGs, telephone follow-up, and electronic subject ingestion diaries. […]

The next data set has as its system C57Bl/6 female mice. The conditions noted are these: mouse, in vivo. An excerpt:
The trillions of organisms forming the microbiome function as an organ system interconnected throughout the body. The possibility that modification of the microbiome in a given physical location may influence the microbiome at other sites in the body (distal augmentation) was investigated. Seven week old C57Bl/6 female mice were acclimatized for 7 days prior to the start of the study by daily handling and shuffling between cages. All mice were housed at three mice per cage in individually vented cages (Thoren, Hazleton, Pa.). At day 0, baseline fresh fecal pellets, and vaginal lavages with 100 μL of sterile double-distilled water were collected and immediately frozen at −80° C. for microbiome analysis. […] Water alone is not expected to influence the microbiome and acted as a negative control. […] The impact of oral vancomycin is therefore expected to be limited to the gastrointestinal tract such that microbiome changes elsewhere in the body (e.g. vagina) would be attributable to distal augmentation. At day 6, fresh fecal pellets and vaginal lavages with 100 μL of sterile double-distilled water were collected and immediately stored at −80° C. for microbiome analysis.
Isolation and sequencing of microbial DNA from the stool and vaginal samples was performed by DNA Genotek (Ottawa, ON, Canada). The V3-V4 region of the 16S ribosomal subunit was amplified with custom PCR primers and sequenced on an Illumina MiSeq to a minimum acceptable read depth of 25,000 sequences per sample. […] These OTU's were then assigned a curated taxonomic label based on the seven level SILVA taxonomy.

In data set [5] the test system is Tregs in the large intestine. The conditions noted are these: mouse, in vivo; cited from earlier work.
For a further data set, the system named is serum endotoxin. An excerpt:
FIG. 1 is a graph depicting serum endotoxin levels (EU/ml) over time following treatment with xylose.

For data set [6], the system named is Blautia; Lactobacillus johnsonii. As to the kind of experiment: Sugar fermentation by Blautia versus Lactobacillus johnsonii (pH and optical density, media lacking glucose). It counts as cell-based.
A further data set has as its system mice with GVHD. Particulars: mouse, in vivo.
The next data set concerns tumors. Particulars: oral administration; cited from earlier work.

Regarding `O=C[C@H](O)[C@@H](O)[C@H](O)CO` [D-xylose], in data set [1], the accumulation ratio result is recorded as “approximately 1.9 fold”. Moreover, in data set [2] (2 g and 15 g D-xylose cohorts), the “serum interferon gamma over time” value is listed as “trend for reduced levels of serum interferon gamma over time”. Moreover, the “total T-cells or T-cell subsets over time” value in data set [2] (any D-xylose ingestion amount) was “No consistent or clinically meaningful changes over time”. Besides, the “effect on gut microbiome (alpha diversity, community composition)” value in [2] was “no apparent significant impact on the intra-sample alpha diversity”. In [3], the “use as carbon source by bacterial strains” value is reported as “used as a carbon source by several bacterial strains”. The “subjects with at least 1 AE considered related to study sweetener” value in data set [4] is recorded as 25.0%.
With `CN[C@H](CC(C)C)C(=O)N[C@H]1C(=O)N[C@@H](CC(N)=O)C(=O)N[C@H]2C(=O)N[C@H]3C(=O)N[C@H](C(=O)N[C@H](C(=O)O)c4cc(O)cc(O)c4-c4cc3ccc4O)[C@H](O)c3ccc(c(Cl)c3)Oc3cc2cc(c3O[C@@H]2O[C@H](CO)[C@@H](O)[C@H](O)[C@H]2O[C@H]2C[C@](C)(N)[C@H](O)[C@H](C)O2)Oc2ccc(cc2Cl)[C@H]1O` [Vancomycin, vancomycin], in the data set on C57Bl/6 female mice, the “impact on the microbiome of the gut (fecal samples, PCA at family level)” value is “strong impact on the microbiome of the gut” and the “median abundance of bacterial species detected in vaginal samples at day 6 that were not present at day 0” value is “approximately 0.00002%”. For the same compound, the “day 0 to day 6 pattern in vaginal samples (PCA)” value with C57Bl/6 female mice (po) is “overall difference between the PBS and oral vancomycin groups”.
In the case of `CC(=O)O` [acetate], the “numbers of Tregs in the large intestine” value in data set [5] was “restored normal numbers of Tregs in the large intestine”.
Regarding `CCN1CCN(c2cc3c(cc2F)c(=O)c(C(=O)O)cn3C2CC2)CC1` [enrofloxacin, reference compound], in the data set on serum endotoxin (mice, by day 14), the “serum endotoxin levels after antibiotic treatment, recovery” value is “return to baseline”. The “serum endotoxin levels after antibiotic treatment” value in the data set with serum endotoxin (mice, measured 2 days after a 5 day course, at day 0) was “leads to an increase in serum endotoxin levels”.
Consider `CCC(=O)O` [propionate], for which the “numbers of Tregs in the large intestine” value in data set [5] is listed as “restored normal numbers of Tregs in the large intestine”.
Consider `C[C@H](O)[C@H](O)[C@@H](O)[C@@H](O)C=O` [rhamnose], for which the “substrate fermentable by Blautia but not lactobacillus” value in [6] was “specifically augments Blautia but not lactobacillus”.
With `O=C[C@H](O)[C@@H](O)[C@H](O)CO` [xylose], in the data set with mice with GVHD, the “Blautia in the intestinal flora” value is “expansion of Blautia in the intestinal flora” and the “survival of mice with GVHD” value is recorded as “improved survival of mice with GVHD”. For the same compound, in the data set on serum endotoxin (mouse, in vivo), the “basal levels of serum endotoxin” value is “reduces basal levels of serum endotoxin”, the “effect on the endotoxin increase caused by cipro” value is reported as “counteracts the endotoxin increase” and the “effect on the endotoxin increase caused by enro” value is “not”. Moreover, the “effect on gut microbiome (alpha diversity, community composition)” value in [2] is on record as “exerts subtle changes in the gut microbiome”. Further, the “substrate fermentable by Blautia but not lactobacillus” value in [6] is “specifically augments Blautia but not lactobacillus”.
With Bacteroides, the “responsiveness to checkpoint inhibitor therapy in cancer” value in the data set with tumors is reported as “increases the responsiveness to checkpoint inhibitor therapy in cancer”.
With Bifidobacterium, the “responsiveness to checkpoint inhibitor therapy in cancer” value with tumors is recorded as “increases the responsiveness to checkpoint inhibitor therapy in cancer”.
